PubChem BioAssay (NCI)
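Test compounds were applied to cells in 96-well plates for 48 hours at 5 doses. TGI is the concentration that stops growth completely.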

Experiments:
Assay in all cases: inhibition of tumour cell growth, NCI panel, 48 h
786-0 renal = system: 786-0 renal
A498 renal = system: A498 renal
HCC-2998 colon = system: HCC-2998 colon
HCT-116 colon = system: HCT-116 colon
IGROV1 ovarian = system: IGROV1 ovarian
K-562 leukemia = system: K-562 leukemia
KM12 colon = system: KM12 colon
NCI-H226 lung = system: NCI-H226 lung
OVCAR-8 ovarian = system: OVCAR-8 ovarian
SF-295 CNS = system: SF-295 CNS
SK-OV-3 ovarian = system: SK-OV-3 ovarian
SW-620 colon = system: SW-620 colon
UO-31 renal = system: UO-31 renal
XF 498 CNS = system: XF 498 CNS
HCT-15 colon = system: HCT-15 colon
NCI-H460 lung = system: NCI-H460 lung
RXF 393 renal = system: RXF 393 renal
DU-145 prostate = system: DU-145 prostate
MCF7 breast = system: MCF7 breast
MDA-MB-435 = system: MDA-MB-435

SMILES	TGI (786-0 renal) [µM]	TGI (A498 renal) [µM]	TGI (HCC-2998 colon) [µM]	TGI (HCT-116 colon) [µM]	TGI (IGROV1 ovarian) [µM]	TGI (K-562 leukemia) [µM]	TGI (KM12 colon) [µM]	TGI (NCI-H226 lung) [µM]	TGI (OVCAR-8 ovarian) [µM]	TGI (SF-295 CNS) [µM]	TGI (SK-OV-3 ovarian) [µM]	TGI (SW-620 colon) [µM]	TGI (UO-31 renal) [µM]	TGI (XF 498 CNS) [µM]	TGI (HCT-15 colon) [µM]	TGI (NCI-H460 lung) [µM]	TGI (RXF 393 renal) [µM]	TGI (DU-145 prostate) [µM]	TGI (MCF7 breast) [µM]	TGI (MDA-MB-435) [µM]
O=S1(=O)OCCOS(=O)(=O)C1I	> 100	> 100	> 100	> 100	> 100	> 100	> 100	> 100	> 100	> 100	> 100	> 100	> 100	> 100						
CC1=NN(c2ccccc2)C(=O)C1=C1SCCS1	> 100	> 100	> 100	> 64.6	> 100	> 69.1	> 100	> 100	> 100	> 100	> 100	> 53.8	> 100	> 100	> 59.7	> 100	> 65.4			
COc1ccc(N2C(=O)C3c4[nH]c5ccccc5c4C4CCCCCCCCCCC4C3C2=O)cc1 (centres undefined)	8.17	25.5	> 100	15.6	> 48.7	> 78.3	> 57.3	17.7	9.61	39.4	> 57.5	18.7	> 59.8	28	19.9	19.5				
C/C(=N\NS(=O)(=O)c1ccc(C)cc1)C(CN1CCOCC1)C(c1ccccc1)c1c(O)c2ccccc2oc1=O (centres undefined)	> 100	> 100		> 100	> 100	> 100	> 100	> 100	> 100	> 100	> 100	> 100	> 100	> 100	> 100	> 100	> 100			
CCCN(CCCCC(NC(C)=O)C(=O)NCc1ccccc1)C(=O)N(C)N=O (centres undefined)	> 100	> 100	> 100	> 100	> 100	> 100	> 100	> 100	> 100	> 100	> 100	> 100	> 100	> 100	> 100	> 100	> 100			
Cc1nc2c(n1CCO)C(=O)c1ccccc1C2=O	> 100		> 100	43	84	58.3	> 100	> 100	> 100	> 100	> 100	> 100	> 100	92.9	> 100	> 100	> 100			
C/C(CC(=O)Nc1ccc(Cl)c(Cl)c1)=N/NC(=O)C[n+]1ccccc1	> 100	> 100	> 100	> 100	> 100	> 100	> 100	> 100	> 100	> 100	> 100		> 100	> 100	> 100	> 100	> 100			
COc1cccc2c1CCc1ccccc1CC2=O	> 100	> 100	> 100	> 100	> 100	> 100	> 100	> 100	> 100	> 100	> 100	> 100	> 100	> 100	> 100	> 100	> 100			
COc1c(Cl)c2c(c(OC)c1OC)-c1ccc(OC)c(=O)c(Cl)c1C(NC(C)=O)CC2 (centres undefined)	> 33.8	0.413	0.453	0.322		> 100	> 100	1.59		0.49		> 100	> 100	12.9	2.38	1.34				
COc1ccc(N2C(=O)C3c4[nH]c5ccc(OC)cc5c4C4CCC(C(C)(C)C)CC4C3C2=O)cc1 (centres undefined)	66.1	49.3	> 100	26.1	> 100	> 100	> 100	> 100	> 100	32.8	80	> 100	> 100	> 100	> 100	> 100	58.1			
Cc1nc(C)c(C(=O)NNC(=O)Cc2ccccc2)cc1C(=O)NNC(=O)Cc1ccccc1	> 100	> 100	> 100	> 100	> 100	> 100	> 100	> 100	> 100	> 100	> 100	> 100	> 100		> 100	> 100	> 100	> 100	> 100	> 100
COc1ccc(C[C@@H]2Cc3cc(OC)c(OC)cc3CN2C)cc1	> 100	> 100	> 100			> 100	> 100		> 100	> 100		> 100	> 100	> 100	> 100	> 100				
CC(C)=CCC[C@@H](C)C1=C(O)C(Nc2ccccc2Br)=C(C)C(=O)C1=O	51.2	45.2	> 69.9	43.6	37.3	> 69.9	32.1	34.2	73	28.1	68	52.1	35.7		22.9	> 64.8	32.9	20.7	39.7	> 65.7
CC(=O)c1cccc(NC(=O)/C(=N\NC(C)(C)C)c2c(O)c3ccccc3oc2=O)c1	> 100		> 100	> 100	> 100		> 100	> 100	> 100	> 100	> 100	> 100	> 100	> 100	> 100	> 100	> 100			
O=C1/C(=C\c2ccc(Cl)cc2Cl)Sc2scc(-c3cccc([N+](=O)[O-])c3)[n+]21	12.3	> 100	20.5	17.8	22.5	> 100	26.7	38.2	29.1	> 68.9	> 56.4	> 32.2	13.8		4.87	29.7	14.6	29	15.5	27.8
CCc1n[nH]c(=S)n1/N=C\c1ccc(-c2ccccc2Cl)o1	86.6	> 100	83.3	66.6	> 100	53.2	> 100	41.6	61.7	> 100	> 100	> 100	> 100		83.3	> 100	> 100	> 100	> 100	48.4
COc1cc(/C=C2\C[C@H]3[C@@H]4CC=C5C[C@@H](O)CC[C@]5(C)[C@H]4CC[C@]3(C)[C@H]2O)cc(OC)c1OC	27.1	80.6	> 100	24.4	> 100	> 100	39.4	> 100	> 100	22.4	> 100	> 100	36.8		> 100	> 100	18.3	> 100	> 100	87.2
CC(C)(C)OC(=O)N(O)[C@@H]1C=C[C@H](n2cnc3c(N)ncnc32)C1	> 100	> 100	> 100	> 100	> 100	> 100	> 100	96.9	> 100	> 100	> 100	> 100	> 100		> 100	> 100	> 100	> 100	> 100	> 100
Cc1ccc(CC(=O)Nc2ccc(NC(=O)/C=C/NC(=O)/C=C/c3ccc(-c4ccccc4)cc3)cc2C(=O)c2ccccc2)cc1	3.34	5.31	1.61	2.96	2.16	> 100	14.6	6.15	2.21	3.05	4.36	3.44	13.7		9.53	4.6	3.52	> 100	4.92	10.8
COc1ccc2c(c1)c(=O)c1ccccc1n2/C=C/C(=O)O	> 100	> 100	> 100	> 100	> 100	> 100	> 100	> 100	> 100	> 100	> 100	> 100	> 100	> 100	> 100	> 100	> 100			
Cc1ccccc1C1CC(=O)CC(c2ccccc2C)C12C(=O)NC(=O)NC2=O (centres undefined)	> 100	> 100	> 100	> 100	> 100	> 100	> 100	> 100	> 100	> 100	> 100	> 100	> 100		> 100	> 100	> 100	> 100	> 100	> 100
O=C(/C=C(\O)c1ccc(Cl)cc1)C(=O)N=Nc1c(O)[nH]c2ccc(Br)cc12	> 100	74.3	> 100	> 100	> 100	45.8	> 100	> 100	> 100	> 100	> 100	> 100	> 100		> 100	> 100	> 100	> 100	> 100	> 100
COC(=O)c1ccc(OCc2ccc3nc(OC)c(OC)nc3c2)cc1	> 100		> 100	> 100		> 100	> 100	> 100	> 100	> 100		> 100	> 100	> 100	> 100	> 100				
CN(NC(=O)c1ccco1)C1=NCCN1	> 100	> 100	> 100	> 100	> 100	> 100	> 100	> 100	> 100	> 100	> 100	> 100	> 100		> 100	> 100	> 100	> 100	> 100	> 100
O=C(O)CN1CCNCCN(CP(=O)(O)O)CC1	> 29.2	99.1	> 100	> 27.5	> 100	> 100	> 100	> 100	> 22.9	> 100	> 100	> 100	> 100		> 100	> 100	> 100	> 100	> 100	> 100
C=CCCCC1CCCNC1=O (centres undefined)	> 100	> 100	> 100	> 100	> 100	> 100	> 100	> 100	> 100	> 100	> 100	> 100	> 100		> 100	> 100	> 100	> 100	> 100	> 100
CN(C)c1ccc(-c2cc(=O)c3cc4c(cc3[nH]2)OCO4)cc1	> 100	> 100	> 100	> 100	> 100	> 100		> 100	> 100	> 100		> 100	> 100	> 100	> 100	> 100	> 100			
